From article PMC4237514, “Novel amino-β-lactam derivatives as potent cholesterol absorption inhibitors” (European Journal of Medicinal Chemistry, 2014)
pIC50: −log10 of the molar value.

Biological target: T1, human NPC1L1 (Homo sapiens, UniProt Q9UHC9)
T1 construct: expressed in transfected cells
T1 sequence (Q9UHC9 22-1359): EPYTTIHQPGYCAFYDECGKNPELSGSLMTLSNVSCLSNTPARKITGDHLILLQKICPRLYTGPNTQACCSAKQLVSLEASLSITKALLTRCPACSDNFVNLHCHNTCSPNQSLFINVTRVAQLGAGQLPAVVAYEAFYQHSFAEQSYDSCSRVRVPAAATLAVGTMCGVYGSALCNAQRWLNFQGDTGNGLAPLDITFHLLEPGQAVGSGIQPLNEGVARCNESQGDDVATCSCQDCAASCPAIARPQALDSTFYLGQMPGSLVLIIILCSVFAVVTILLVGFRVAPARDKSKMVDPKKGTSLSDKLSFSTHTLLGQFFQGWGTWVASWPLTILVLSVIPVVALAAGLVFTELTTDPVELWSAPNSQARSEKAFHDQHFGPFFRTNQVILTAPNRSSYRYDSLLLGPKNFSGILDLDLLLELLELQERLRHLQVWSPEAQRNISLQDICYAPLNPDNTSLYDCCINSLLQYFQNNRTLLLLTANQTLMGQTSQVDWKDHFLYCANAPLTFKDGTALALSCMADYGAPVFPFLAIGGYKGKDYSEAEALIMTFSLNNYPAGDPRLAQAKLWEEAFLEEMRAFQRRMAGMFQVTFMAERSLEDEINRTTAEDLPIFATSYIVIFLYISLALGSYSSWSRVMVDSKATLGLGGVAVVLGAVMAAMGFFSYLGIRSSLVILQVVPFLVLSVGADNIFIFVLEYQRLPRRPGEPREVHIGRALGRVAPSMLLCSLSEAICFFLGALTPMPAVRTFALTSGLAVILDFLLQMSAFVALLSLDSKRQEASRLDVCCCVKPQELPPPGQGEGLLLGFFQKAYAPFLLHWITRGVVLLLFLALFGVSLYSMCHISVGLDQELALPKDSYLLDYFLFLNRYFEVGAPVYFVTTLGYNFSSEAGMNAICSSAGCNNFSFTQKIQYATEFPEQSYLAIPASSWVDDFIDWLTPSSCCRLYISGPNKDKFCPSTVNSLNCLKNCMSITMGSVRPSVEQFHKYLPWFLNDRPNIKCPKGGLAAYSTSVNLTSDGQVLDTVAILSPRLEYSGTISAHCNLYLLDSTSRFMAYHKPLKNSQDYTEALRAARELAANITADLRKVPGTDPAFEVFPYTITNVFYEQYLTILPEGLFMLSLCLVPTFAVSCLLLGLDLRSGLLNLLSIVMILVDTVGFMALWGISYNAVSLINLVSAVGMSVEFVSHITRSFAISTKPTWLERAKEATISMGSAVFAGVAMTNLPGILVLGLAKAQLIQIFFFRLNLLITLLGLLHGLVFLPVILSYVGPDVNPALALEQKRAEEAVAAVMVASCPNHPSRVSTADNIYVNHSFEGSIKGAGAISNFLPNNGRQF
Assay: In vitro [3H]cholesterol uptake assay in hNPC1L1/MDCKII cells
Format: cell-based
Details: 1 h, read-out: IC50, cholesterol uptake inhibition
Procedure: Medium A contained DMEM plus 100 units/mL penicillin and 100 μg/mL streptomycin supplemented with 5% lipoprotein-deficient serum (density > 1.21 g/mL, prepared from FCS by ultracentrifugation). Cholesterol Replenishing Medium (Medium B) was prepared according to the modified method reported by Field et al.. In brief, 0.25 mM oleic acid, 50 μM free cholesterol, 10 μM compactin, 50 μM mevalonate, 5 mM Na-taurocholate (Sigma–Aldrich, Germany), and [^3H]cholesterol (0.18 μCi/mL medium, [1,2–3H(N)] cholesterol, 1 mCi/mL (ARC Inc., USA)) in Medium A were mixed and sonicated. Following the micellar formation, compounds 1, 5, 6, 5/6 (70:30), and 6/5 (85:15) (73 mM stock solution in DMSO) were added to Medium B and vortexed to obtain the final concentrations (10, 30, 60, 90, 120, 150, 200 μM).
MDCKII wildtype and hNPC1L1/MDCKII cells were seeded in 24-well plates at a density of 5 × 10^5 cells/mL medium (500 μL medium/well) in Medium A 24 h before the treatment. Cells were washed once with PBS and incubated in Medium B (500 μL medium/well) containing micelles and tested compounds in indicated concentrations for 1 h. Following the incubation, the medium was removed and cells were washed three times with ice-cold 0.2% free fatty acid-free BSA. Cells were lysed and radioactivity in the lysate (100 μL) was determined by liquid scintillation counting. Protein concentrations of the lysates were determined with the DC Protein Assay (Bio-Rad, USA). The results were calculated as cpm/mg protein and expressed as percentage of inhibition compared to untreated cells. Each concentration was tested in duplicate in three independent experiments.

O=C1[C@H](NCC(O)c2ccc(F)cc2)[C@@H](c2ccc(O)cc2)N1c1ccc(F)cc1 (stereo partly drawn) [6/5 (85:15), (3R,4R)-3-[(2S/R)-2-(4-fluorophenyl)-2-hydroxyethylamino]-1-(4-fluorophenyl)-4-(4-hydroxyphenyl)azetidin-2-one]
pIC50: 4.15
